Test: NMR relaxivity studies (R1 relaxivity)
Type: physicochemical
Conditions: Gd(III) complexes of DTPA analogues
Experimental: The potential of L1 and L2 to be used in magnetic resonance imaging/Optical Imaging (MRI/OI) was evaluated by measuring their (a) thermodynamic stability by stability constants with potentiometric titrations; (b) R1 relaxivities by NMR relaxivity studies and (c) spectrophotometric (luminescence) investigations.
The diagnostic moiety of the theranostic agent of the present invention enhances MR images when the patient is subjected to the magnetic field of the MR scanning machine by altering the T1 relaxation of local water protons. The paramagnetic relaxation of water protons arises as a result of dipole-dipole interactions between the proton nuclear spins and that of the oscillating magnetic field of MR machine caused by the interaction with the unpaired electron spins of paramagnetic metal ion in the complex, under pulse of radio frequency. The overall paramagnetic water proton relaxation rate enhancement (i.e. proton relaxivity) is governed by two factors, namely inner sphere and outer sphere contributions. […] This profile measures molecular dynamics taking place within the said complex understudy in a quantitative manner in the time scales of milliseconds to nanoseconds. […]

relaxivity (in words): high relaxivity
Compound: O=C(O)CN(CCN(CCN(CC(=O)O)CC(=O)O)CCN1C(=O)c2cccc3cccc(c23)C1=O)CC(=O)O [Type A]

— patent US20240042065A1, “THERANOSTIC AGENTS” (priority 2022, published 2024)
